In the supplement of paper PMC6045584:
± gives the standard deviation of the averaged measurements.

Columns and labels:
SAPACITABINE = compound: CCCCCCCCCCCCCCCC(=O)Nc1ccn([C@@H]2O[C@H](CO)[C@@H](O)[C@@H]2C#N)c(=O)n1 [SAPACITABINE]; assay: surviving fraction relative to DMSO-only wells; higher = less growth inhibition; settings: exposure time: 5 days
In short: (§1)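 Five days of continuous inhibitor exposure, at 0.5, 1, 5, 10, 50, 100, 500 and 1000 nM, followed a 24-hour period after log-phase tumour cell lines were seeded at 250–500 cells per well in 384-well plates. Surviving fraction was derived from CellTiter-Glo luminescence relative to the median of DMSO-only wells. Plates were read after 10 minutes at room temperature, and lines screened three times were kept only if replicate Pearson r >0.7 and median Z' >0.3.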

AFATINIB = compound: CN(C)C/C=C/C(=O)Nc1cc2c(Nc3ccc(F)c(Cl)c3)ncnc2cc1O[C@H]1CCOC1 [AFATINIB]; assay: as above; settings: exposure time: 5 days
In short: as §1

| Test System | surviving fraction (SAPACITABINE; 0.5 nM) | surviving fraction (SAPACITABINE; 1 nM) | surviving fraction (SAPACITABINE; 5 nM) | surviving fraction (SAPACITABINE; 10 nM) | surviving fraction (SAPACITABINE; 50 nM) | surviving fraction (SAPACITABINE; 100 nM) | surviving fraction (SAPACITABINE; 500 nM) | surviving fraction (SAPACITABINE; 1000 nM) | surviving fraction (AFATINIB; 0.5 nM) | surviving fraction (AFATINIB; 1 nM) | surviving fraction (AFATINIB; 5 nM) | surviving fraction (AFATINIB; 10 nM) | surviving fraction (AFATINIB; 50 nM) | surviving fraction (AFATINIB; 100 nM) | surviving fraction (AFATINIB; 500 nM) | surviving fraction (AFATINIB; 1000 nM) |
| --- | --- | --- | --- | --- | --- | --- | --- | --- | --- | --- | --- | --- | --- | --- | --- | --- |
| 22RV1 PROSTATE | 0.89 ± 0.094 | 1.06 ± 0.16 | 0.894 ± 0.042 | 0.8687 ± 0.0045 | 0.746 ± 0.12 | 0.692 ± 0.099 | 0.333 ± 0.029 | 0.199 ± 0.034 | 1.03 ± 0.098 | 1.05 ± 0.063 | 1.01 ± 0.037 | 0.977 ± 0.087 | 0.984 ± 0.052 | 0.916 ± 0.028 | 0.737 ± 0.057 | 0.515 ± 0.065 |
| MDAMB157 BREAST | 0.911 ± 0.034 | 0.859 ± 0.058 | 0.806 ± 0.077 | 0.755 ± 0.025 | 0.632 ± 0.069 | 0.619 ± 0.02 | 0.446 ± 0.02 | 0.306 ± 0.036 | 0.993 ± 0.14 | 0.975 ± 0.048 | 0.96 ± 0.09 | 0.976 ± 0.16 | 0.979 ± 0.069 | 0.944 ± 0.12 | 0.85 ± 0.097 | 0.526 ± 0.06 |
| HCC202 BREAST | 0.86 ± 0.17 | 0.93 ± 0.091 | 1.04 ± 0.38 | 0.761 ± 0.21 | 1.08 ± 0.37 | 0.904 ± 0.0085 | 0.911 ± 0.15 | 0.851 ± 0.048 | 1.12 ± 0.36 | 0.943 ± 0.36 | 0.561 ± 0.2 | 0.442 ± 0.098 | 0.253 ± 0.07 | 0.191 ± 0.048 | 0.0983 ± 0.031 | 0.0747 ± 0.0055 |
| HCT15 LARGE INTESTINE | 0.76 ± 0.048 | 0.693 ± 0.056 | 0.713 ± 0.064 | 0.298 ± 0.063 | 0.458 ± 0.074 | 0.143 ± 0.021 | 0.141 ± 0.013 | 0.0447 ± 0.0085 | 1.12 ± 0.03 | 1.05 ± 0.02 | 1.04 ± 0.064 | 1.05 ± 0.027 | 1.1 ± 0.052 | 1.06 ± 0.068 | 0.97 ± 0.081 | 0.632 ± 0.063 |
| BT20 BREAST | 0.764 ± 0.042 | 0.743 ± 0.021 | 0.679 ± 0.051 | 0.633 ± 0.11 | 0.515 ± 0.028 | 0.396 ± 0.025 | 0.211 ± 0.023 | 0.281 ± 0.051 | 1.1 ± 0.22 | 1.03 ± 0.2 | 0.943 ± 0.24 | 0.922 ± 0.15 | 0.909 ± 0.17 | 0.857 ± 0.3 | 1.18 ± 0.3 | 1.28 ± 0.15 |
| SUM149 BREAST | 0.829 ± 0.11 | 0.666 ± 0.055 | 0.69 ± 0.11 | 0.188 ± 0.006 | 0.339 ± 0.031 | 0.22 ± 0.018 | 0.236 ± 0.016 | 0.186 ± 0.021 | 1.03 ± 0.076 | 1.05 ± 0.033 | 0.703 ± 0.12 | 0.573 ± 0.089 | 0.481 ± 0.056 | 0.439 ± 0.013 | 0.4053 ± 0.004 | 0.339 ± 0.044 |
| HCC1954 BREAST | 0.436 ± 0.047 | 0.437 ± 0.016 | 0.445 ± 0.058 | 0.559 ± 0.1 | 0.464 ± 0.037 | 0.371 ± 0.014 | 0.425 ± 0.0067 | 0.343 ± 0.035 | 0.969 ± 0.079 | 0.886 ± 0.021 | 0.763 ± 0.028 | 0.56 ± 0.0078 | 0.471 ± 0.094 | 0.479 ± 0.025 | 0.266 ± 0.038 | 0.145 ± 0.011 |
| G292 BONE | 0.947 ± 0.056 | 0.955 ± 0.026 | 0.927 ± 0.059 | 0.899 ± 0.061 | 0.618 ± 0.028 | 0.482 ± 0.012 | 0.326 ± 0.011 | 0.299 ± 0.0036 | 1 ± 0.064 | 0.998 ± 0.029 | 1.07 ± 0.027 | 0.995 ± 0.037 | 1.03 ± 0.02 | 0.982 ± 0.028 | 0.717 ± 0.032 | 0.447 ± 0.027 |
| SG43 HEADNECK | 1.04 ± 0.091 | 1.28 ± 0.23 | 1.08 ± 0.17 | 1.11 ± 0.29 | 0.867 ± 0.14 | 1.04 ± 0.072 | 0.933 ± 0.13 | 1.05 ± 0.04 | 1.03 ± 0.33 | 0.966 ± 0.27 | 0.362 ± 0.022 | 0.414 ± 0.18 | 0.301 ± 0.11 | 0.181 ± 0.044 | 0.182 ± 0.046 | 0.0613 ± 0.035 |
| SNU475 LIVER | 0.888 ± 0.063 | 0.726 ± 0.057 | 0.83 ± 0.03 | 0.365 ± 0.03 | 0.962 ± 0.057 | 0.745 ± 0.025 | 0.573 ± 0.016 | 0.291 ± 0.015 | 1.01 ± 0.03 | 0.985 ± 0.029 | 0.953 ± 0.062 | 0.937 ± 0.028 | 0.922 ± 0.024 | 0.893 ± 0.054 | 0.717 ± 0.012 | 0.432 ± 0.027 |
| T47D BREAST | 0.9004 ± 0.0044 | 0.871 ± 0.029 | 0.911 ± 0.078 | 0.825 ± 0.035 | 0.961 ± 0.06 | 0.918 ± 0.036 | 0.649 ± 0.0094 | 0.519 ± 0.039 | 1.06 ± 0.033 | 1.04 ± 0.06 | 1.01 ± 0.031 | 0.98 ± 0.023 | 1.04 ± 0.013 | 1.08 ± 0.022 | 1.07 ± 0.054 | 0.939 ± 0.037 |
| SUM159 BREAST | 0.954 ± 0.016 | 0.942 ± 0.01 | 0.947 ± 0.028 | 0.9227 ± 0.0074 | 0.935 ± 0.018 | 0.851 ± 0.018 | 0.42 ± 0.0061 | 0.34 ± 0.021 | 1.07 ± 0.02 | 1.03 ± 0.061 | 1.07 ± 0.023 | 0.942 ± 0.13 | 0.943 ± 0.15 | 0.886 ± 0.27 | 0.896 ± 0.23 | 0.867 ± 0.27 |
